From PMC12105704 (2025)
One block for each compound: values may come before it.

Legend:
[1] = system: Ssa-PreQ1 RNA (RNA, riboswitch) AGAGGUUCCUAGCUGAUACCCUCUAUAAAAAACUA; assay: photocrosslinking, streptavidin pull-down, PAGE; details: PreQ1 folding buffer: 100 mM KCl, 1 mM MgCl2; covalent; 50 µM RNA, 75 µM bio-CNV, 35 min; also pulled down from MCF7 total RNA
[2] = system: Bpu PreQ1 aptamer (RNA, riboswitch) AGAGGUUCUAGCAAAACCCUCUAUAAAAAACUAA; assay: photocrosslinking, PAGE gel shift and MALDI-TOF; details: PreQ1 folding buffer: 100 mM KCl, 1 mM MgCl2; covalent; 50 µM RNA, 75 µM CNV, 365 nm 35 min, RT
[3] = system: Gth PreQ1 aptamer (RNA, riboswitch) AGAGGUUUCUAGCAAAACCCUCUAUAAAAAACUA; assay: photocrosslinking, PAGE gel shift and MALDI-TOF; details: PreQ1 folding buffer: 100 mM KCl, 1 mM MgCl2; covalent; 50 µM RNA, 75 µM CNV, 365 nm 35 min, RT
[4] = system: Ssa-PreQ1 RNA (RNA, riboswitch) AGAGGUUCCUAGCUGAUACCCUCUAUAAAAAACUA; assay: photocrosslinking, PAGE gel shift; details: PreQ1 folding buffer: 100 mM KCl, 1 mM MgCl2, covalent, 50 µM RNA, 75 µM compound, 365 nm 35 min
[5] = system: Cy5-labelled Tte PreQ1 RNA (RNA, riboswitch) CUGGGUCGCAGUAACCCCAGUUAACAAAACAAG; assay: microscale thermophoresis; details: 100 mM KCl, 1 mM MgCl2; 50 mM Tris pH 7.5, 5% DMSO, RT; irradiated 365 nm 35 min before MST, covalent, apparent
[6] = system: Tte PreQ1 RNA (unlabeled) (RNA, riboswitch) CUGGGUCGCAGUAACCCCAGUUAACAAAACAAG; assay: photocrosslinking, denaturing PAGE and fluorescence; details: PreQ1 folding buffer: 100 mM KCl, 1 mM MgCl2; covalent; 50 µM RNA, 75 µM CNV, 365 nm; 15% crosslinked at 35 min
[7] = system: Bsu PreQ1 aptamer (RNA, riboswitch) AGAGGUUCUAGCUACACCCUCUAUAAAAAACUAA; assay: photocrosslinking, PAGE gel shift and MALDI-TOF; details: PreQ1 folding buffer: 100 mM KCl, 1 mM MgCl2; covalent; 50 µM RNA, 75 µM CNV, 365 nm 35 min, RT
[8] = system: Oih PreQ1 aptamer (RNA, riboswitch) AGAGGUUCUUAGCUUCAACCCUCUAUAAAAAACUAA; assay: photocrosslinking, PAGE gel shift and MALDI-TOF; details: PreQ1 folding buffer: 100 mM KCl, 1 mM MgCl2; covalent; 50 µM RNA, 75 µM CNV, 365 nm 35 min, RT
[9] = system: Tte PreQ1 RNA (unlabeled) (RNA, riboswitch) CUGGGUCGCAGUAACCCCAGUUAACAAAACAAG; assay: competition with CNV photocrosslinking, PAGE; details: PreQ1 folding buffer: 100 mM KCl, 1 mM MgCl2; PreQ1 0X-10X; dose-dependent inhibition of CNV crosslinking
[10] = system: Ssa-PreQ1 RNA (RNA, riboswitch) AGAGGUUCCUAGCUGAUACCCUCUAUAAAAAACUA; assay: competition with bio-CNV photocrosslinking, pull-down, RNAseq; details: PreQ1 folding buffer: 100 mM KCl, 1 mM MgCl2; 1 µM aptamer in MCF7 total RNA, 250 µM bio-CNV, 500 µM PreQ1; enrichment abolished

Structure (SMILES): N#C/C=C/c1ccc2[nH]c3ccc(CCCOC(=O)CCCc4cn(CCOCCOCCOCCNC(=O)CCCC[C@@H]5SC[C@@H]6NC(=O)N[C@@H]65)nn4)cc3c2c1
binding [1]: yes

Structure (SMILES): N#C/C=C/c1ccc2[nH]c3ccccc3c2c1
binding [2]: yes
binding [3]: yes
binding ([4]; reversed at 302 nm): yes
KD [5]: 400 ± 200 nM
binding [6]: yes
binding [7]: yes
binding [8]: yes

Structure (SMILES): NCc1c[nH]c2nc(N)[nH]c(=O)c12
binding [9]: yes
binding [10]: yes

Further lines, results first:

binding ([4]; minimal uncaging at 302 nm): yes
Structure (SMILES): N#C/C=C/c1ccc2[nH]c3cccnc3c2c1

binding ([4]; minimal uncaging at 302 nm): yes
Structure (SMILES): N#C/C=C/c1ccc2[nH]c3ccncc3c2c1
